Source: ChEMBL document CHEMBL3991601, “The target landscape of clinical kinase drugs” (Science, 2017)
Activity calls are given as the source filed them.

How the values were obtained:
[1] = biological target: T1, Acyl-CoA dehydrogenase family member 11 (Homo sapiens, UniProt Q709F0)
T1 sequence (Q709F0 whole entry): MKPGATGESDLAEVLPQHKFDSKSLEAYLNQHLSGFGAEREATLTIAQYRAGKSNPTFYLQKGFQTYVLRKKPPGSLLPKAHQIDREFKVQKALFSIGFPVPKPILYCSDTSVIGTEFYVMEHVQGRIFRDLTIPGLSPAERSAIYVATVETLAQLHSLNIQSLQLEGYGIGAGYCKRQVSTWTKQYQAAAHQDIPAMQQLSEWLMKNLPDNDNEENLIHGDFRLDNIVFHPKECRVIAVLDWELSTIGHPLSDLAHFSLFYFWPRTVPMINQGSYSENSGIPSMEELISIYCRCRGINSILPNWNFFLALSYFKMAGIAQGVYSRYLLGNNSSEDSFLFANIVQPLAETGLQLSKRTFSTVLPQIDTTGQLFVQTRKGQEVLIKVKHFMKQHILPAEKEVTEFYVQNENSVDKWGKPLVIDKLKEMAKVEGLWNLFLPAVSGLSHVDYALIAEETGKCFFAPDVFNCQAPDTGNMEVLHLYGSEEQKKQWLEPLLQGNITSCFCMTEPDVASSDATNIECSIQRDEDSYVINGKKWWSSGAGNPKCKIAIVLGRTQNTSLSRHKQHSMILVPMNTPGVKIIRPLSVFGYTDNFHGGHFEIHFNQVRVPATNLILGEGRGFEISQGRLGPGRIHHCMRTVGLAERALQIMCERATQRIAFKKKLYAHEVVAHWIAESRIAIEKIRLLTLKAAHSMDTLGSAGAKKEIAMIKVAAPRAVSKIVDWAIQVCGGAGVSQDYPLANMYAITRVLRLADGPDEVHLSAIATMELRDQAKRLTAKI

[2] = biological target: Cyclin-dependent kinase 4 (Homo sapiens, UniProt P11802)
Cyclin-dependent kinase 4, sequence (P11802 whole entry): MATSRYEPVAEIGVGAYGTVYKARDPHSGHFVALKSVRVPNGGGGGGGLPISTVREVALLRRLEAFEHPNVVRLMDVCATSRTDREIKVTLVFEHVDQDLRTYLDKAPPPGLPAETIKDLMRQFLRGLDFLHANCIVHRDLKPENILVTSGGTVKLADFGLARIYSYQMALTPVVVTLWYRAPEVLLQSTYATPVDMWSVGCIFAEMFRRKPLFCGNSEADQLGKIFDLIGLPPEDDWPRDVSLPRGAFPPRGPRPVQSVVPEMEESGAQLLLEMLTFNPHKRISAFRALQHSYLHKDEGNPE

[3] = biological target: T2, Probable ATP-dependent RNA helicase DDX6 (Homo sapiens, UniProt P26196)
T2 sequence (P26196 whole entry): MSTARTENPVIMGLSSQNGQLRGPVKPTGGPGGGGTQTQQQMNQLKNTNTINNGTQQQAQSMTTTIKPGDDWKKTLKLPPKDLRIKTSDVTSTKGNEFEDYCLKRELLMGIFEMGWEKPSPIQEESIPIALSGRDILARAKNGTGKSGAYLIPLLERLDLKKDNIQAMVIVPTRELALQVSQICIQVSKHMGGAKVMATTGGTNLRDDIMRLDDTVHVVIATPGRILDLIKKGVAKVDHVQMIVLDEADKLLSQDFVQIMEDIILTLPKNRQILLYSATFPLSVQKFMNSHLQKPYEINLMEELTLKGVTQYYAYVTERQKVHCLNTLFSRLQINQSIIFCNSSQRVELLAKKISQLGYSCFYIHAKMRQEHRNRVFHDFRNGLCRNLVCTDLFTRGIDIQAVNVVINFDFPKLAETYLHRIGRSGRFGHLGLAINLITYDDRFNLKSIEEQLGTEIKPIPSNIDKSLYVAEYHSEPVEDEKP

[4] = biological target: Eukaryotic translation initiation factor 2-alpha kinase 1 (Homo sapiens, UniProt Q9BQI3)
Eukaryotic translation initiation factor 2-alpha kinase 1, sequence (Q9BQI3 whole entry): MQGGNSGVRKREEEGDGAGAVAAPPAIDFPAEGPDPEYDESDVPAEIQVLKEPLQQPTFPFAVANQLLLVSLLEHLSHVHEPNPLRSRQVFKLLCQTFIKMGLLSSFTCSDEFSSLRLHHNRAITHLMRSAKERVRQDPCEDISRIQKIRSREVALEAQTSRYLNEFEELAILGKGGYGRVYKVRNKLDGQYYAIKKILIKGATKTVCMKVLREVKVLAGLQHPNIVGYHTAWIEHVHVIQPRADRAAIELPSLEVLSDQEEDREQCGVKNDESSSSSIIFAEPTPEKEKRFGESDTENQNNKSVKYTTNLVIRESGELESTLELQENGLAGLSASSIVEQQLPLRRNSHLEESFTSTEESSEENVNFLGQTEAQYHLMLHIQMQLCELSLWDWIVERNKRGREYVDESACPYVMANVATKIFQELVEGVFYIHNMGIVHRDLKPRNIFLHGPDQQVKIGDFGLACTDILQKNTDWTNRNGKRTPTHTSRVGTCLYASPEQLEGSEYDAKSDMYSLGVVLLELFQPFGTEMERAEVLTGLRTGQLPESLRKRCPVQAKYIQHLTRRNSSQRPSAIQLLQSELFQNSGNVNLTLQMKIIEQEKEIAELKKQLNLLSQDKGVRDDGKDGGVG

[5] = biological target: T3, Serine/threonine-protein kinase NLK (Homo sapiens, UniProt Q9UBE8)
T3 sequence (Q9UBE8 whole entry): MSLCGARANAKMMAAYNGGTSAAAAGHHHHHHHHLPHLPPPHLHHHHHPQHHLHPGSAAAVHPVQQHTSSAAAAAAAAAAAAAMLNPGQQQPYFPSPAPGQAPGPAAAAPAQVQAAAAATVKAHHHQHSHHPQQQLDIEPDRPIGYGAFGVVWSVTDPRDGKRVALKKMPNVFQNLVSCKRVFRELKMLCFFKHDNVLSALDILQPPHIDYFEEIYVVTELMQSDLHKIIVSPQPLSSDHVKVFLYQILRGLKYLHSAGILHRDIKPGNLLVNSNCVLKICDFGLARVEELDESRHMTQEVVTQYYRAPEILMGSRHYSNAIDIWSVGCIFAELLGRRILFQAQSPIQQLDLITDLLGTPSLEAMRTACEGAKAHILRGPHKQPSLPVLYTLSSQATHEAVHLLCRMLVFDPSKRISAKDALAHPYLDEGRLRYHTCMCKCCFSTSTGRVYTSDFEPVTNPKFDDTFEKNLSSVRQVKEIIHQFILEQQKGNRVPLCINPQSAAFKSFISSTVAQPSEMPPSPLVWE

[6] = biological target: Serine/threonine-protein kinase pim-1 (Homo sapiens, UniProt P11309)
Serine/threonine-protein kinase pim-1, sequence (P11309 whole entry): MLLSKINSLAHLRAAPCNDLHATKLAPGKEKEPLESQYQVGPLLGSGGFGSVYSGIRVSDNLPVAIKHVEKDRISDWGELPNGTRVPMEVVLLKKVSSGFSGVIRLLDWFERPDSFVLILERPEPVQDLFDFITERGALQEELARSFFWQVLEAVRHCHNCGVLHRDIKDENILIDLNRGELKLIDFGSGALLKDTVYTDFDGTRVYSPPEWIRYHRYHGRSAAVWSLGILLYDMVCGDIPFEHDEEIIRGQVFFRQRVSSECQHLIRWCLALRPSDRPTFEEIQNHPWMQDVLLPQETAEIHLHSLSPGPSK

[7] = biological target: Protein-tyrosine kinase 2-beta (Homo sapiens, UniProt Q14289)
Protein-tyrosine kinase 2-beta, sequence (Q14289 whole entry): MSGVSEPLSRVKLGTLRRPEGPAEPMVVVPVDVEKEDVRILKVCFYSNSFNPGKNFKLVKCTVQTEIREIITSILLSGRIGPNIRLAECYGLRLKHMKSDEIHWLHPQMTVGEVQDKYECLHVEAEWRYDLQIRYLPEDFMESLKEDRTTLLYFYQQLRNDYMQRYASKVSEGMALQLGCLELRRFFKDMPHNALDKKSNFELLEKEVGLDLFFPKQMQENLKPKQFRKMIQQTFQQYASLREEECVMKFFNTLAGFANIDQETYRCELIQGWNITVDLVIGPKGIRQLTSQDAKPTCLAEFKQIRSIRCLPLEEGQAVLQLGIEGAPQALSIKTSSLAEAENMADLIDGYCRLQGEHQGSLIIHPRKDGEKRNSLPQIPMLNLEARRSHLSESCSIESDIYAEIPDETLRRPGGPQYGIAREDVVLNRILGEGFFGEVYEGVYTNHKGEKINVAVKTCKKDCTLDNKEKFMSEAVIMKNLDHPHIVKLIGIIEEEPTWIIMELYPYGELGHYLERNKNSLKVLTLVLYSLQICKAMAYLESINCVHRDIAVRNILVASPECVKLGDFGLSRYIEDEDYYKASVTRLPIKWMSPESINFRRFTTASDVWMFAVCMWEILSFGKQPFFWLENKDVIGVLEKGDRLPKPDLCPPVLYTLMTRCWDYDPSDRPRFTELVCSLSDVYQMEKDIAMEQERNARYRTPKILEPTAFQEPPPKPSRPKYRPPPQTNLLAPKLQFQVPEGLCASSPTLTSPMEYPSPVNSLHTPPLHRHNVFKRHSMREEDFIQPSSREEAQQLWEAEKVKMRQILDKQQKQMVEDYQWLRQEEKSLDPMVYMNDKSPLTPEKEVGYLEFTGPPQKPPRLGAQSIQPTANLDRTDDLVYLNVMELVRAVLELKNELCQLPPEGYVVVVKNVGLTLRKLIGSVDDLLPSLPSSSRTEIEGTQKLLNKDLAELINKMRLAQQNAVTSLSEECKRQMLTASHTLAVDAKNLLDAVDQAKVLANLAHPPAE

Activated CDC42 kinase 1 = Activated CDC42 kinase 1 (Homo sapiens, UniProt Q07912)
Activated CDC42 kinase 1, sequence (Q07912 whole entry): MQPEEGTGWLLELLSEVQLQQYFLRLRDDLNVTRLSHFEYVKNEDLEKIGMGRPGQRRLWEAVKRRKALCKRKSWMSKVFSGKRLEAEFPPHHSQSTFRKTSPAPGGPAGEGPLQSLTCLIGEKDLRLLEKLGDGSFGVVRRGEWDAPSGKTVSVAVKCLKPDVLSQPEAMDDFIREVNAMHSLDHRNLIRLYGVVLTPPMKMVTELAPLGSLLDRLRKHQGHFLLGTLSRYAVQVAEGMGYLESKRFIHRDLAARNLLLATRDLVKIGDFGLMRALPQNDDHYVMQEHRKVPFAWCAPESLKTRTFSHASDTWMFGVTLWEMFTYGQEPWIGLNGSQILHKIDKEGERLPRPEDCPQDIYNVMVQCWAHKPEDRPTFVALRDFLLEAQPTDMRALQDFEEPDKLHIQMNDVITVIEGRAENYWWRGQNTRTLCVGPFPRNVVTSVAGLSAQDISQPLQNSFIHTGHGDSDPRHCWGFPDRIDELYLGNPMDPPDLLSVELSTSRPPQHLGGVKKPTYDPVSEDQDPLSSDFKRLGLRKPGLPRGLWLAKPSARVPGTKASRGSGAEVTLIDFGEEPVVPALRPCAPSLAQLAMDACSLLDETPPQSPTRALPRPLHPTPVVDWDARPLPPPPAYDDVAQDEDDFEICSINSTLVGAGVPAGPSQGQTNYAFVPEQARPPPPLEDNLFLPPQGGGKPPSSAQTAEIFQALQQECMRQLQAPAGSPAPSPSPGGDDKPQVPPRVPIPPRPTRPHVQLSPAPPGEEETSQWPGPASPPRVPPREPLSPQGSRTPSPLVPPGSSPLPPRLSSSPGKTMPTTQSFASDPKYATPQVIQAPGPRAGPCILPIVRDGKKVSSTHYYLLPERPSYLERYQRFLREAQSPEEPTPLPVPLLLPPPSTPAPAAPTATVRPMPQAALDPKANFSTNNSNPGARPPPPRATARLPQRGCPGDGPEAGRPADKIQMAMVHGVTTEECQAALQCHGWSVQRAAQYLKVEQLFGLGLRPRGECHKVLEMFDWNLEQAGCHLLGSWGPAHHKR
Further: in the data inactive means no Kd found up to 30 µM.

Structure (SMILES)	Kd [1]	Kd [2]	Kd [3]	Kd [4]	Kd [5]	Kd [6]	Kd [7]	Kd (Activated CDC42 kinase 1)
CNC(=O)c1cccc2cc(Oc3ccnc4cc(OCC5(N)CC5)c(OC)cc34)ccc12 [LUCITANIB]	> 30 µM (inactive)	> 30 µM (inactive)	> 30 µM (inactive)	> 30 µM (inactive)	> 30 µM (inactive)	> 30 µM (inactive)	> 30 µM (inactive)	> 30 µM (inactive)
CCOc1cc2ncc(C#N)c(Nc3ccc(F)c(Cl)c3)c2cc1NC(=O)/C=C/CN(C)C [PELITINIB]	> 30 µM (inactive)	> 30 µM (inactive)	> 30 µM (inactive)	> 30 µM (inactive)	> 30 µM (inactive)	> 30 µM (inactive)	> 30 µM (inactive)	> 30 µM (inactive)
Cc1cnc(NC(=O)Nc2cc(Br)c(C)cc2OC[C@@H]2CNCCO2)cn1 [RABUSERTIB]	> 30 µM (inactive)	> 30 µM (inactive)	> 30 µM (inactive)	> 30 µM (inactive)	> 30 µM (inactive)	> 30 µM (inactive)	> 30 µM (inactive)	> 30 µM (inactive)
CO[C@H]1C[C@@H]2CC[C@@H](C)[C@@](O)(O2)C(=O)C(=O)N2CCCC[C@H]2C(=O)O[C@H]([C@H](C)C[C@@H]2CC[C@@H](OP(C)(C)=O)[C@H](OC)C2)CC(=O)[C@H](C)/C=C(\C)[C@@H](O)[C@@H](OC)C(=O)[C@H](C)C[C@H](C)/C=C/C=C/C=C/1C [RIDAFOROLIMUS]	> 30 µM (inactive)	> 30 µM (inactive)	> 30 µM (inactive)	> 30 µM (inactive)	> 30 µM (inactive)	> 30 µM (inactive)	> 30 µM (inactive)	> 30 µM (inactive)
N#CC1(c2ccc(NC(=O)c3cccnc3NCc3ccncc3)cc2)CCCC1 [RIVOCERANIB]	> 30 µM (inactive)	> 30 µM (inactive)	> 30 µM (inactive)	> 30 µM (inactive)	> 30 µM (inactive)	> 30 µM (inactive)	> 30 µM (inactive)	> 30 µM (inactive)
O=c1[nH]ccc2cc(OC3CCNCC3)ccc12 [SAR-407899 FREE BASE]	> 30 µM (inactive)	> 30 µM (inactive)	> 30 µM (inactive)	> 30 µM (inactive)	> 30 µM (inactive)	> 30 µM (inactive)	> 30 µM (inactive)	> 30 µM (inactive)
CN1CCN(CCOc2cc(OC3CCOCC3)c3c(Nc4c(Cl)ccc5c4OCO5)ncnc3c2)CC1 [SARACATINIB]	> 30 µM (inactive)	> 30 µM (inactive)	> 30 µM (inactive)	> 30 µM (inactive)	> 30 µM (inactive)	> 30 µM (inactive)	> 30 µM (inactive)	4.65 µM (active)
CO[C@H]1C[C@@H]2CC[C@@H](C)[C@@](O)(O2)C(=O)C(=O)N2CCCC[C@H]2C(=O)O[C@H]([C@H](C)C[C@@H]2CC[C@@H](O)[C@H](OC)C2)CC(=O)[C@H](C)/C=C(\C)[C@@H](O)[C@@H](OC)C(=O)[C@H](C)C[C@H](C)/C=C/C=C/C=C/1C [SIROLIMUS]	> 30 µM (inactive)	> 30 µM (inactive)	> 30 µM (inactive)	> 30 µM (inactive)	> 30 µM (inactive)	> 30 µM (inactive)	> 30 µM (inactive)	> 30 µM (inactive)
CO[C@H]1C[C@@H]2CC[C@@H](C)[C@@](O)(O2)C(=O)C(=O)N2CCCC[C@H]2C(=O)O[C@H]([C@H](C)C[C@@H]2CC[C@@H](OC(=O)C(C)(CO)CO)[C@H](OC)C2)CC(=O)[C@H](C)/C=C(\C)[C@@H](O)[C@@H](OC)C(=O)[C@H](C)C[C@H](C)/C=C/C=C/C=C/1C [TEMSIROLIMUS]	> 30 µM (inactive)	> 30 µM (inactive)	> 30 µM (inactive)	> 30 µM (inactive)	> 30 µM (inactive)	> 30 µM (inactive)	> 30 µM (inactive)	> 30 µM (inactive)
COc1cc2c(Nc3ccc(Cl)c(Cl)c3F)ncnc2cc1OC[C@@H]1C[C@@H]2CN(C)C[C@@H]2C1 [TESEVATINIB]	> 30 µM (inactive)	> 30 µM (inactive)	> 30 µM (inactive)	> 30 µM (inactive)	> 30 µM (inactive)	> 30 µM (inactive)	> 30 µM (inactive)	> 30 µM (inactive)
O=C(Cc1ccc(-c2ccc(OCCN3CCOCC3)cc2)cn1)NCc1ccccc1 [TIRBANIBULIN]	> 30 µM (inactive)	> 30 µM (inactive)	> 30 µM (inactive)	> 30 µM (inactive)	> 30 µM (inactive)	> 30 µM (inactive)	> 30 µM (inactive)	> 30 µM (inactive)

The remaining lines, values ahead:

Kd [1]	Kd [2]	Kd [3]	Kd [4]	Kd [5]	Kd [6]	Kd [7]	Kd (Activated CDC42 kinase 1)	Structure (SMILES)
> 30 µM (inactive)	> 30 µM (inactive)	> 30 µM (inactive)	> 30 µM (inactive)	> 30 µM (inactive)	> 30 µM (inactive)	> 30 µM (inactive)	> 30 µM (inactive)	CCn1cc(-c2ccnc3[nH]c(-c4cccc(CN(C)C)c4)cc23)c(-c2ccc(NC(=O)N(C)C)cc2)n1 [GSK-1070916]
> 30 µM (inactive)	> 30 µM (inactive)	> 30 µM (inactive)	> 30 µM (inactive)	> 30 µM (inactive)	> 30 µM (inactive)	> 30 µM (inactive)	> 30 µM (inactive)	COc1ccc(S(=O)(=O)N(C(C)=O)c2ccccc2/C=C/c2cc[n+]([O-])cc2)cc1 [HMN-214]
> 30 µM (inactive)	> 30 µM (inactive)	> 30 µM (inactive)	> 30 µM (inactive)	> 30 µM (inactive)	> 30 µM (inactive)	> 30 µM (inactive)	> 30 µM (inactive)	NC1(c2ccc(-c3nc4ccn5c(=O)[nH]nc5c4cc3-c3ccccc3)cc2)CCC1 [MK-2206]
> 30 µM (inactive)	> 30 µM (inactive)	> 30 µM (inactive)	> 30 µM (inactive)	> 30 µM (inactive)	> 30 µM (inactive)	> 30 µM (inactive)	> 30 µM (inactive)	Cn1cc(-c2cnc3ccc4ccc(CS(=O)(=O)NCc5ccccn5)cc4c(=O)c3c2)cn1 [MK-8033]
> 30 µM (inactive)	> 30 µM (inactive)	> 30 µM (inactive)	> 30 µM (inactive)	> 30 µM (inactive)	> 30 µM (inactive)	1.4 µM (active)	> 30 µM (inactive)	Cc1nc(Nc2n[nH]c3c2CN(C(=O)N[C@H](CN(C)C)c2ccccc2)C3(C)C)c2sccc2n1 [PF-03758309]
> 30 µM (inactive)	> 30 µM (inactive)	> 30 µM (inactive)	> 30 µM (inactive)	> 30 µM (inactive)	19.3 µM (active)	> 30 µM (inactive)	> 30 µM (inactive)	Cn1cc(-c2cnn3c(N)c(Br)c([C@@H]4CCCNC4)nc23)cn1 [SCH-900776]
> 30 µM (inactive)	> 30 µM (inactive)	> 30 µM (inactive)	> 30 µM (inactive)	> 30 µM (inactive)	> 30 µM (inactive)	0.19 µM (active)	0.281 µM (active)	CCS(=O)(=O)c1cccc(-c2cc(C(=O)NC3CCN(C)CC3)c(C)c3[nH]c4ncc(C)cc4c23)c1 [TAK-901]
